Measurements taken from publication PMC4047407 (The Journal of Biological Chemistry, 2014).
Where a SMILES comes first, the peptide text is derived from it. Bridges are numbered along the chain shown (N, C = ends).

How the values were obtained:
M. sexta V-ATPase = molecular target: T1, M. sexta V-ATPase (Manduca sexta, UniProt P31403); experiment: V-ATPase assay, detection of released phosphate, purified V1Vo holoenzyme; type: biochemical; settings: Fig. 5, read-out: apparent Ki, inhibition of M. sexta V-ATPase
T1 construct: The M. sexta V1Vo holoenzyme was extracted and purified as described previously; from tissue
T1 sequence (P31403 whole entry): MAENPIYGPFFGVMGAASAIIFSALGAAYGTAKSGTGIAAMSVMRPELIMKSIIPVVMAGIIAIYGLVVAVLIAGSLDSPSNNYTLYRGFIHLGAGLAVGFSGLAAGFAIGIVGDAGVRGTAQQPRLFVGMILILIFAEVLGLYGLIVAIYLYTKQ
Experimental: (§1) S. oryzae strains WAA42 and ISOR3 were reared according to Louis et al. ([25]). […] PA1b labeling using ^125I and binding assays using the ^125I toxin were performed according to Ref. [22], and binding data were analyzed using the SIMFIT software. Fifth instar larvae of M. sexta (Lepidoptera, Sphingidae), weighing 6–8 g, were reared under long day conditions (16 h of light) at 27 °C using the gypsy moth diet (MP Biomedicals).
(§2) V-ATPase assays based on the detection of released phosphate using the M. sexta V-ATPase or yeast vacuolar membranes were carried out as reported previously ([23], [28], [29]).
(§3) FIGURE 5. Inhibition of yeast V-ATPase activity. […] For comparison, inhibition of the purified V1Vo holoenzyme of M. sexta (squares) by PA1b is included.

[1] = molecular target: V-ATPase from wild type S. cerevisiae strain BMA64-1B (Saccharomyces cerevisiae, UniProt P23968+P25515+P32842); experiment: V-ATPase assay on yeast vacuolar membranes, wild type strain; type: biochemical; settings: Fig. 5, read-out: Ki, inhibition of V-ATPase activity
Experimental: as §2, §3

S. oryzae strain WAA42 = experiment: Weevil toxicity bioassay, inhibitor in the food, PA1b-sensitive strain; type: in vivo, Sitophilus oryzae; settings: 30 weevils, artificial diet over 14 days
Experimental: as §1
(§4) FIGURE 6. […] 30 rice weevils (S. oryzae) were fed on artificial diet incorporating each tested compound over 14 days. The weevil strains were WAA42 (PA1b-sensitive strain: open symbols) and ISOR3 (PA1b-resistant strain: filled symbols). […] Open diamonds/dashed line, control for artificial diet with bafilomycin solvent.

[2] = tested on: crude membrane extract of S. oryzae (PA1b binding site); set-up: species or system Sitophilus oryzae; settings: WAA42 membrane extracts; bafilomycin up to 10 μM; data not shown
S. oryzae strain ISOR3 = experiment: Weevil toxicity bioassay, inhibitor in the food, PA1b-resistant strain; type: in vivo, Sitophilus oryzae; settings: 30 weevils; for Mortality: 14 days
Experimental: as §1, §4

## CC[C@H](C)[C@@H]1NC(=O)[C@H](C(C)C)NC(=O)[C@H](CC(C)C)NC(=O)CNC(=O)[C@H](C(C)C)NC(=O)[C@@H]2CCCN2C(=O)[C@H]([C@@H](C)CC)NC(=O)[C@@H]2CSSC[C@@H]3NC(=O)[C@H](C(C)C)NC(=O)CNC(=O)[C@H](CC(N)=O)NC(=O)[C@@H](NC(=O)[C@H](CO)NC(=O)[C@H](C)N)CSSC[C@H](NC(=O)[C@H](C)NC(=O)[C@H](CO)NC(=O)[C@H]([C@@H](C)O)NC(=O)CNC(=O)[C@H](CSSC[C@@H](C(=O)N[C@@H](CCCNC(=N)N)C(=O)N[C@@H](CC(N)=O)C(=O)N4CCC[C@H]4C(=O)N[C@@H](CO)C(=O)NCC(=O)O)NC(=O)[C@H](Cc4ccc(O)cc4)NC(=O)CNC1=O)NC(=O)[C@@H]1CCCN1C(=O)[C@@H]1CCCN1C(=O)[C@H](CCSC)NC(=O)[C@H](CCC(=O)O)NC(=O)[C@H](Cc1ccccc1)NC(=O)[C@@H]1CCCN1C(=O)[C@H](CO)NC3=O)C(=O)N[C@@H](CCCNC(=N)N)C(=O)N2 [PA1b, pea albumin 1 subunit b] (H-ASCNGVCSPFEMPPCGTSACRCIPVGLVIGYCRNPSG-OH; disulfide 3-20, 7-22, 15-32)
M. sexta V-ATPase
  Ki: ~91 nM

## CO/C1=C\C(C)=C\[C@@H](C)[C@@H](O)[C@@H](C)C/C(C)=C/C=C/[C@H](OC)[C@@H]([C@@H](C)[C@@H](O)[C@H](C)[C@@]2(O)C[C@@H](O)[C@H](C)[C@@H](C(C)C)O2)OC1=O [bafilomycin, bafilomycin A1]
[1]
  Ki: ~2.4 nM
S. oryzae strain WAA42; bafilomycin 0.36 mg/g of food
  TL50: 12.6 ± 2.3 days
S. oryzae strain WAA42; bafilomycin 0.60 mg/g of food
  TL50: 9.4 ± 1 days
S. oryzae strain WAA42; bafilomycin 2.0 mg/g food
  TL50: 4.0 ± 0.2 days
[2]
  Inhibition of binding of radiolabeled PA1b by bafilomycin: unable to inhibit
S. oryzae strain ISOR3; bafilomycin 0.36 mg/g of food
  Mortality: no mortality
S. oryzae strain ISOR3; bafilomycin 0.60 mg/g of food
  Mortality: no mortality
S. oryzae strain ISOR3; bafilomycin 2.0 mg/g food, artificial diet over 14 days
  TL50: 9.9 ± 0.5 days
